Values quoted from earlier work in patent US20080095722A1, “Extended Surface Aggregates in the Treatment of Skin Conditions” (IDEA AG, priority 2004, published 2008).
Where two headings read alike, the source gives them in different places.

How the values were obtained:
melanocytes = conditions: cell cultures, cited from earlier work
erythema = conditions: gel base or alcoholic solution; cited from earlier work

SMILES | effect on melanocytes (melanocytes; low concentrations) | effect on melanocytes (melanocytes; very high concentrations) | inhibition of the appearance of erythema (erythema)
CC(=O)Oc1ccccc1C(=O)O [acetylsalicylic acid] | stimulate melanocytes | may cause melanocyte apoptosis | –
COc1ccc2c(c1)c(CC(=O)O)c(C)n2C(=O)c1ccc(Cl)cc1 [indomethacin] | – | – | some inhibition of the appearance of erythema
